Several values for one entry are separate records, joined by “and”; a condition that tells them apart may be missing. Identical values can stand only once. Like-named read-outs stand apart in the source and are kept apart here.
Key:
Parameters in all cases: GG stays after cleavage) (N); made in house; host or cells: E. coli BL21(DE3)
[1] = molecular target: T1, PaPepA (Pseudomonas aeruginosa, UniProt Q02RY8); test: Solvent kinetic isotope effects; format: biochemical; conditions: H2O vs 80% D2O, metal varied, Leu-pNA fixed, pH 8.0
Procedure: SKIEs were determined by plotting saturation curves in H2O or 80% D2O. […] Differences between reaction rates under initial velocity conditions were measured varying the concentration of either Leu-pNA or Mn^2+, while keeping the other component constant and in excess (at least 5× the value of KM or KACT, Scheme 2). Experiments were performed at pH 8.0 (100 mM HEPES, with 50 mM KCl). For proton inventory studies, D2O was varied from 0 to 80% in 10% increments. All proton inventory studies were carried out on the same day by using the same enzyme stock.
When calculating SKIEs, kcat and KM were obtained from the Michaelis–Menten curves in H2O. The 80% D2O Michaelis–Menten curve was fit to the following equation: [drawing 2] 2 where Fi is the fraction D2O, and EV/K and EV are the isotope effects −1 on kcat/KM and kcat, respectively.

[2] = molecular target: T1, PaPepA; format: biochemical
[3] = molecular target: T1, PaPepA; format: biochemical; remark: listed apart in the source
Source text: Viscosity effects were studied by using sucrose as a viscogen. Relative viscosities for different concentrations of sucrose were taken from Bazelyansky et al.[27] Concentrations of viscogen were as follows: 14% sucrose, ηrel = 1.5; 24% sucrose, ηrel = 2.2; and 32% sucrose, ηrel = 2.9.
Viscosity effects were fit to the following equation, where kinetic parameter0 and kinetic parameterη are kcat or kcat/KM in the […] of viscogen, respectively, ηrel is the relative viscosity of the solution, and m is the slope. [drawing 4] 4
All measurements were performed in triplicate.

[4] = molecular target: T1, PaPepA; test: Room-temperature EPR spectroscopy Mn2+ titration; conditions: 20 μM PaPepA, 1:0.9 enzyme:Mn^2+ binding model, to be taken as upper limit
Procedure: EPR spectra were obtained with a Bruker EMX 10/12 spectrometer running Xenon software and equipped with an ELEXSYS Super Hi-Q resonator at an operating frequency of ∼9.5 GHz with a 100 kHz modulation. EPR spectra for Mn titrations were recorded at room temperature using a 160 mT field sweep centered at 350 mT, a time constant of 40.96 ms, a conversion time of 133.53 ms, and a 480-point resolution. An attenuation of 10 dB (20.7 mW power) and a modulation amplitude of 1 mT were used. Spectra were phase- and background-corrected, and the double integral was obtained using the Xenon software.
For acquiring EPR spectra, 20 μM PaPepA was used in 100 mM HEPES pH 7.5, 50 mM KCl with increasing concentration of MnCl2: 0–30 μM in steps of 2, 35, and 40 μM (18 steps). For the calibration curve, the same buffer and steps were employed in the absence of enzyme.

[5] = molecular target: T1, PaPepA; test: Isothermal titration calorimetry of metal binding
Procedure: Purified PaPepA (100 μM) was buffer exchanged into ITC buffer (50 mM Tris, 140 mM NaCl, pH 7.4) using a Millipore Amicon Ultra-4 centrifugal unit (10 kDa MWCO). The protein was syringe-filtered through a […] and diluted to 50 μM. 3 mL solutions of filtered metal were also prepared. A 400 μM solution of MnCl2 and a 1 mM solution of MgCl2 were prepared by dilution of 1 M metal chloride stocks (Sigma) into ITC buffer.
Buffer, protein, and metal solutions were degassed. Following extensive washes with ITC buffer, the protein was loaded into the cell (volume 1.43 mL) of a VP-ITC (MicroCal) and MnCl2 or MgCl2 solution was loaded into the syringe (total volume 300 μL). Experiments were carried out using the following settings: temperature = 25 °C, duration = 4 s, spacing = 210 s, filter period = 2 s, for 35 injections (one injection of 2 μL followed by 34 injections of 8 μL). Data were analyzed using Origin(Pro), Version 2021 (OriginLab Corporation, Northampton, Massachusetts, USA), and MicroCal PEAQ-ITC analysis software (Malvern).

[6] = H2O (0% PEG-8000), MnCl2 varied

T1 sequence (Q02RY8 whole entry): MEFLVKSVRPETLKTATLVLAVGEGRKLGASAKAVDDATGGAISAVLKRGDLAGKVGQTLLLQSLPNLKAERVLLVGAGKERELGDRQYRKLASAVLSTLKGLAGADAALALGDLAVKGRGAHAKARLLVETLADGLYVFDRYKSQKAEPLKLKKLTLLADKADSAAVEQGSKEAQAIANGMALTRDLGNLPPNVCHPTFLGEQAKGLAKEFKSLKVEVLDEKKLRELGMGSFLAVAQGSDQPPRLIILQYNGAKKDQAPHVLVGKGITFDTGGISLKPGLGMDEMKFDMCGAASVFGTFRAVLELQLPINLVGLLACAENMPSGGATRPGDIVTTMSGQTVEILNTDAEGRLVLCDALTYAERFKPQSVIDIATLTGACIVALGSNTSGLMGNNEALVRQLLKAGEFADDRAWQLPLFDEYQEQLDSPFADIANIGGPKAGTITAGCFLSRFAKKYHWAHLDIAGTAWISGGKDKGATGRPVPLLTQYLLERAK

[Mn+2] [Mn^2+]
^D2Okcat [1]: 3.9 ± 0.1 | ^D2Okcat/KACT [1]: 1.9 ± 0.2 | KACT ([2]; 5 % PEG 8000, MnCl2 varied): 0.19 ± 0.03 | kcat/KACT ([2]; 5 % PEG 8000, MnCl2 varied): 2.2 ± 0.4 | kcat ([2]; 5 % PEG 8000, labelled component varied, other saturating, in 1/s): 0.43 ± 0.02 | KACT [3, 6]: 0.19 ± 0.01 | kcat/KACT [3, 6]: 2.2 ± 0.2 | kcat ([3]; H2O (0% PEG-8000), labelled component varied, other saturating, in 1/s): 0.409 ± 0.009 | Slope (sucrose) on kcat/KACT ([3]; sucrose as viscogen, Mn2+ variation): -0.10 ± 0.06 | Slope (sucrose) on kcat ([3]; sucrose as viscogen, labelled component varied): 0.14 ± 0.05 | Kd [4]: 174 nM and ~174 nM | greater affinity for Mn^2+ than Mg^2+ ([5]; ITC titration curves): approximately 150 times | Kd ([5]; ITC, first line per metal: N 1, [PepA] 35.80 ± 1.5 (Mn) or 32.60 (Mg) µM, [Metal] 400.0 or 1000 µM): 0.0122 ± 0.0015 µM | Kd ([5]; ITC, one binding site per monomer, 25 °C, pH 7.4): 0.0136 ± 0.0005 µM | Kd ([5]; ITC, one binding site per monomer, 25 °C, pH 7.4, listed as Mn2+): 0.012 µM | Kd ([5]; ITC, second line per metal: N 1, [PepA] 47.00 or 48.00 µM, [Metal] 526.5 ± 22.5 (Mn) or 1470 (Mg) µM): 0.0163 ± 1e-05 µM | N ([5]; ITC, third line per metal: N fitted): 0.76 ± 0.03 | Kd ([5]; ITC, third line per metal: N fitted, [PepA] 47.00 or 48.00 µM, [Metal] 400.0 or 1000 µM): 0.0122 ± 0.0001 µM

— PMC10666288, “Unveiling the Catalytic Mechanism of a Processive Metalloaminopeptidase” (Biochemistry, 2023)
